Experimental data from PubChem BioAssay AID2060621 (Molecular Pharmacology Branch, DTP, NCI, 2025).

System: 324938-238-R-J1-PDC complex spheroids viability
Assay: Anticancer human tumor 324938-238-R-J1-PDC patient-derived bladder carcinoma cell line growth inhibition [CLK]
Details: for IC50: curve of first compound; for viability, T/C: stronger effect = lower value
In short: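 Multi-cell-type spheroids combined patient-derived tumor cells with HUVEC endothelial cells and human mesenchymal stem cells. Paired agents were dosed in half-log steps down from about clinical Cmax, or from 10 microM where Cmax was unknown.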

[1] = second compound 0.0316 µM, first compound 0.0316 µM
[2] = second compound 0.0316 µM, first compound 0.1 µM
[3] = second compound 0.0316 µM, first compound 0.316 µM
[4] = second compound 0.0316 µM, first compound 1 µM
[5] = second compound 0.0316 µM, first compound 3.16 µM
[6] = second compound 0.0316 µM, first compound 10 µM
[7] = second compound 0.1 µM, first compound 0.0316 µM
[8] = second compound 0.1 µM, first compound 0.1 µM
[9] = second compound 0.1 µM, first compound 0.316 µM
[10] = second compound 0.1 µM, first compound 1 µM
[11] = second compound 0.1 µM, first compound 3.16 µM
[12] = second compound 0.1 µM, first compound 10 µM
[13] = second compound 0.316 µM, first compound 0.0316 µM
[14] = second compound 0.316 µM, first compound 0.1 µM
[15] = second compound 0.316 µM, first compound 0.316 µM
[16] = second compound 0.316 µM, first compound 1 µM
[17] = second compound 0.316 µM, first compound 3.16 µM
[18] = second compound 0.316 µM, first compound 10 µM
[19] = second compound 1 µM, first compound 0.0316 µM
[20] = second compound 1 µM, first compound 0.1 µM
[21] = second compound 1 µM, first compound 0.316 µM
[22] = second compound 1 µM, first compound 1 µM
[23] = second compound 1 µM, first compound 3.16 µM
[24] = second compound 1 µM, first compound 10 µM
[25] = second compound 3.16 µM, first compound 0.0316 µM
[26] = second compound 3.16 µM, first compound 0.1 µM
[27] = second compound 3.16 µM, first compound 0.316 µM
[28] = second compound 3.16 µM, first compound 1 µM
[29] = second compound 3.16 µM, first compound 3.16 µM
[30] = second compound 3.16 µM, first compound 10 µM
[31] = second compound 10 µM, first compound 0.0316 µM
[32] = second compound 10 µM, first compound 0.1 µM
[33] = second compound 10 µM, first compound 0.316 µM
[34] = second compound 10 µM, first compound 1 µM
[35] = second compound 10 µM, first compound 3.16 µM
[36] = second compound 10 µM, first compound 10 µM
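Note: viability read after seven days of drug exposure.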
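Throughout, for viability, T/C: 100% = DMSO vehicle control wells.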

Structure (SMILES): C#Cc1c(F)ccc2cc(O)cc(-c3ncc4c(N5CC6CCC(C5)N6)nc(OCC56CCCN5CC(F)C6)nc4c3F)c12 (stereo unspecified) + CN1CCN(c2cc(C(=O)Nc3cc4cc(-c5cnn(C)c5)ccc4cn3)ccn2)CC1
- IC50 (second compound 0.0316 µM): 5050 nM
- IC50 (second compound 0.1 µM): 1240 nM
- IC50 (second compound 0.316 µM): < 31.6 nM
- IC50 (second compound 1 µM): < 31.6 nM
- IC50 (second compound 3.16 µM): < 31.6 nM
- IC50 (second compound 10 µM): < 31.6 nM
- viability, T/C [1]: 77.5%
- viability, T/C [2]: 86.1%
- viability, T/C [3]: 74.5%
- viability, T/C [4]: 69.9%
- viability, T/C [5]: 56%
- viability, T/C [6]: 41.4%
- viability, T/C [7]: 57.3%
- viability, T/C [8]: 51.8%
- viability, T/C [9]: 52.7%
- viability, T/C [10]: 52.8%
- viability, T/C [11]: 38%
- viability, T/C [12]: 32.7%
- viability, T/C [13]: 28.2%
- viability, T/C [14]: 28%
- viability, T/C [15]: 22.2%
- viability, T/C [16]: 23.9%
- viability, T/C [17]: 21.5%
- viability, T/C [18]: 19.4%
- viability, T/C [19]: 2%
- viability, T/C [20]: 2.51%
- viability, T/C [21]: 2.35%
- viability, T/C [22]: 2.31%
- viability, T/C [23]: 1.37%
- viability, T/C [24]: 0.75%
- viability, T/C [25]: 0.13%
- viability, T/C [26]: 0.3%
- viability, T/C [27]: 0.16%
- viability, T/C [28]: 0.11%
- viability, T/C [29]: 0.15%
- viability, T/C [30]: 0.14%
- viability, T/C [31]: 0.11%
- viability, T/C [32]: 0.16%
- viability, T/C [33]: 1.1%
- viability, T/C [34]: 0.14%
- viability, T/C [35]: 0.15%
- viability, T/C [36]: 0.24%

Structure (SMILES): CC(CO)NC(=O)c1cc(-c2ccc(Cl)cc2)nn(-c2cnn(C)c2)c1=O (stereo unspecified) + CN1CCN(c2cc(C(=O)Nc3cc4cc(-c5cnn(C)c5)ccc4cn3)ccn2)CC1
- IC50 (second compound 0.0316 µM): > 10000 nM
- IC50 (second compound 0.1 µM): 4990 nM
- IC50 (second compound 0.316 µM): < 31.6 nM
- IC50 (second compound 1 µM): < 31.6 nM
- IC50 (second compound 3.16 µM): < 31.6 nM
- IC50 (second compound 10 µM): < 31.6 nM
- viability, T/C [1]: 84.4%
- viability, T/C [2]: 92.8%
- viability, T/C [3]: 83.5%
- viability, T/C [4]: 81%
- viability, T/C [5]: 63.6%
- viability, T/C [6]: 50.9%
- viability, T/C [7]: 60.7%
- viability, T/C [8]: 62.8%
- viability, T/C [9]: 63.3%
- viability, T/C [10]: 55.7%
- viability, T/C [11]: 57.3%
- viability, T/C [12]: 41.3%
- viability, T/C [13]: 23.5%
- viability, T/C [14]: 25.9%
- viability, T/C [15]: 25.3%
- viability, T/C [16]: 25.8%
- viability, T/C [17]: 26.5%
- viability, T/C [18]: 21.4%
- viability, T/C [19]: 1.59%
- viability, T/C [20]: 1.8%
- viability, T/C [21]: 1.38%
- viability, T/C [22]: 1.23%
- viability, T/C [23]: 1.2%
- viability, T/C [24]: 1.04%
- viability, T/C [25]: 0.16%
- viability, T/C [26]: 0.21%
- viability, T/C [27]: 0.21%
- viability, T/C [28]: 0.15%
- viability, T/C [29]: 0.25%
- viability, T/C [30]: 0.67%
- viability, T/C [31]: 0.13%
- viability, T/C [32]: 0.19%
- viability, T/C [33]: 0.25%
- viability, T/C [34]: 0.2%
- viability, T/C [35]: 0.18%
- viability, T/C [36]: 0.22%

Structure (SMILES): COc1c(OCCCN2CCOCC2)ccc2c3n(c(=NC(=O)c4cnc(N)nc4)nc12)CCN3 + CN1CCN(c2cc(C(=O)Nc3cc4cc(-c5cnn(C)c5)ccc4cn3)ccn2)CC1
- IC50 (second compound 0.0316 µM): 17.3 nM
- IC50 (second compound 0.1 µM): 5.43 nM
- IC50 (second compound 0.316 µM): < 3.16 nM
- IC50 (second compound 1 µM): < 3.16 nM
- IC50 (second compound 3.16 µM): < 3.16 nM
- IC50 (second compound 10 µM): < 3.16 nM
- viability, T/C (second compound 0.0316 µM, first compound 0.00316 µM): 76.1%
- viability, T/C (second compound 0.0316 µM, first compound 0.01 µM): 59.6%
- viability, T/C [1]: 39.2%
- viability, T/C [2]: 21.2%
- viability, T/C [3]: 7.23%
- viability, T/C [4]: 1.32%
- viability, T/C (second compound 0.1 µM, first compound 0.00316 µM): 55.8%
- viability, T/C (second compound 0.1 µM, first compound 0.01 µM): 43.5%
- viability, T/C [7]: 29.5%
- viability, T/C [8]: 17.6%
- viability, T/C [9]: 6.5%
- viability, T/C [10]: 1.24%
- viability, T/C (second compound 0.316 µM, first compound 0.00316 µM): 23.9%
- viability, T/C (second compound 0.316 µM, first compound 0.01 µM): 19.4%
- viability, T/C [13]: 15.1%
- viability, T/C [14]: 8.98%
- viability, T/C [15]: 2.42%
- viability, T/C [16]: 0.55%
- viability, T/C (second compound 1 µM, first compound 0.00316 µM): 2.31%
- viability, T/C (second compound 1 µM, first compound 0.01 µM): 2.19%
- viability, T/C [19]: 1.42%
- viability, T/C [20]: 0.41%
- viability, T/C [21]: 0.11%
- viability, T/C [22]: 0.13%
- viability, T/C (second compound 3.16 µM, first compound 0.00316 µM): 0.09%
- viability, T/C (second compound 3.16 µM, first compound 0.01 µM): 0.16%
- viability, T/C [25]: 0.14%
- viability, T/C [26]: 0.07%
- viability, T/C [27]: 0.08%
- viability, T/C [28]: 0.13%
- viability, T/C (second compound 10 µM, first compound 0.00316 µM): 0.05%
- viability, T/C (second compound 10 µM, first compound 0.01 µM): 0.24%
- viability, T/C [31]: 0.16%
- viability, T/C [32]: 0.09%
- viability, T/C [33]: 0.29%
- viability, T/C [34]: 0.16%
